# Key:
# [1] = biological target: T1, human CBS (cystathionine-β-synthase) (Homo sapiens, UniProt P35520); test: H2S production by recombinant CBS; assay type: biochemical; conditions: 100 μM compound; H2S production as % of control (100%)
# T1 construct: GST (N); made in house; host or cells: E. coli BL21(DE3) Codon Plus
# T1 sequence (P35520 1-551): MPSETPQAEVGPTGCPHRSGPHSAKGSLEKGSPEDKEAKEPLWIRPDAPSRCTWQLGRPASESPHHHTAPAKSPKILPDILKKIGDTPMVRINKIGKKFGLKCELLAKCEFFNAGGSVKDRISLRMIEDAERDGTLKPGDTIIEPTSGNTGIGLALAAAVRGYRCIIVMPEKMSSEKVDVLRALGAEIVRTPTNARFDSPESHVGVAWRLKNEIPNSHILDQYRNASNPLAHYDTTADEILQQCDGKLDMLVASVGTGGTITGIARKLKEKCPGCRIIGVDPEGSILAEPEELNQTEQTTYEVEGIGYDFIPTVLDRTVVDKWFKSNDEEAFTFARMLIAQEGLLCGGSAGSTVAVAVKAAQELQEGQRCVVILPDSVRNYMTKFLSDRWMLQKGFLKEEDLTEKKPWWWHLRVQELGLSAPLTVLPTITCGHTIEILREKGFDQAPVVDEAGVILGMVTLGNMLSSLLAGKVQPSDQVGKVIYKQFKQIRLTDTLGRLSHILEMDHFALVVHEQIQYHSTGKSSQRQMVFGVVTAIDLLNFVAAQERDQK
# Description: Recombinant human CBS protein expression and purification. The expression and purification of human CBS was performed as described previously (Asimakopoulou et al. 2013, Br J Pharmacol. 169(4):922-32). Briefly, E. Coli BL21(DE3) Codon Plus cells (Stratagene, La Jolla, Calif., USA) containing the expression vector pGEX-Kg/GST-CBS were grown at 37° C. and 180 rpm in LuriaBertani (LB) broth medium containing 100 μg/ml ampicillin to an absorption of 0.6-0.8 at 600 nm. Protein expression was induced by addition of 0.1 mM IPTG (isopropyl-b-D-thiogalactopyranoside) and cells were further incubated at 30° C. overnight. The bacteria were harvested and sonicated in lysis buffer PBS (140 mM NaCl, 2.7 mM KCl, 10 mM Na2HPO4, 1.8 mM KH2PO4, pH 7.8) containing a protease inhibitors cocktail (Sigma). The protein lysate was loaded onto a GSTrap FF 1 ml affinity column (Amersham Biosciences) and the GST-CBS recombinant protein was eluted with the elution buffer (50 mM Tris-HCl, 10 mM reduced glutathione, pH 8.0) and then dialyzed and concentrated in 10 mM sodium phosphate buffer (pH 8.2) and DTT (1 mM).
# Measurement of H2S production by recombinant CBS. The measurement of H2S production by recombinant CBS enzyme was performed as described (Asimakopoulou et al. 2013, Br J Pharmacol. 169(4):922-32). Briefly, each test consisted of a 100 μl reaction mixture in 50 mM sodium phosphate buffer pH 8.2 containing 1 μg of the purified human CBS enzyme, 0.01 mM pyridoxal-5′-phosphate (PLP), 10 mM L-cysteine and 0.5 mM homocysteine. […] The reaction was initiated by transferring the Eppendorf tubes from ice to a 37° C. shaking water bath. After 60 minutes of incubation at 37° C., the reaction was terminated by adding 1% ZnAc followed by 10% trichloroacetic acid. Subsequently, N,N-dimethylphenylendiamine sulfate (20 mM in 7.2 M HCl) and FeCl3 (30 mM in 1.2 M HCl) were added and the optical absorbance of the solutions was measured at 650 nm.
# [2] = test system: transformed PSC (human pancreatic stellate cells); test: PSC proliferation, AlamarBlue Cell Viability Assay; assay type: cell-based; conditions: for Inhibitory Effect (%) on PSC proliferation / inhibition at 10 µM: 10 μM; for Inhibitory Effect (%) on PSC proliferation / inhibition at 5 µM / inhibition at 10 µM / inhibition at 20 µM: mean of at least three independent experiments, NE = No effect; for inhibition at 5 µM / inhibition at 10 µM / inhibition at 20 µM: Homo sapiens, read-out: Inhibitory Effect (%) on PSC proliferation; for Antiproliferative effect on PSC, result in words: transformed PSC, AlamarBlue
# Description: The calculated lipophilicity (cLogP) and topological polar surface area (tPSA) values of synthesized analogues are listed in Table 1. […] AlamarBlue is a non-toxic reagent that is converted to a highly fluorescent end product by viable cells.
# Under an IRB-approved tissue protocol, discarded human resected pancreatic tissue (500 mm^3) was attained fresh from the operating room at the University of Texas Medical Branch. The tissue was minced and plated on a collagen-coated flask (15 μg/mL, Invitrogen) with DMEM (VWR; Radnor, Pa.) supplemented with penicillin 200 U/mL, streptomycin 200 μg/mL, amphotericin B 0.25 μg/mL and gentimicin 50 μg/mL (Invitrogen, Carlsbad Calif.), 10% fetal bovine serum (Lonza, Walkersville, Md.), 1% insulin-transferrin, selenium-ethanolamine (Gibco, Grand Island, N.Y.), and 1% non-essential amino acids (Sigma-Aldrich, St. Louis, Mo.). The human PSC were isolated by the outgrowth method.^41-43 The purity of PSC culture was confirmed by immunohistochemical staining for vimentin, α-smooth muscle actin, glial fibrillar acidic protein, or Oil red O staining. Primary PSC were transformed and immortalized for use in experiments using lentiviral vectors containing SV40 Large T antigen and human telomerase (plasmid #12245 and 12246; Addgene, Cambridge, Mass.). Cultures were maintained in DMEM with 10% FBS, at 37° C. in a humidified 95% O2/5% CO2 atmosphere.
# Cell proliferation assay. Transformed PSC (3×10^3) were plated in 96-well plates, in sextuplicate. […] AlamarBlue reagent (10% sample volume, DAL1025) was added to each well per Invitrogen's protocol. Fluorescence was recorded using excitation/emission wavelengths of 544/590 nm and the SpectraMax M2 Microplate Reader (Molecular Devices, Sunnyvale Calif.).
# Statistical analysis. Dose-response curves were generated by plotting fluorescence or absorbance versus log (compound concentration). A best-fit curve was created using nonlinear regression, and the IC50 or EC50 determined from the graph (GraphPad Prism 5; GraphPad Software Inc., La Jolla, Calif.). To analyze continuos variables, unpaired student t-tests and one-way ANOVA with Tukey-Kramer multiple comparisons post-test (GraphPad Prism 5). Significance was set at p<0.05.
Compound,melting point [°C],activity at 100 µM [1] [%],Inhibitory Effect (%) on PSC proliferation [2] [%],inhibition at 5 µM [2] [%],inhibition at 10 µM [2] [%],inhibition at 20 µM [2] [%],"Antiproliferative effect on PSC, result in words [2]"
"COc1cc(OC)c2c(=O)cc(-c3ccc(OCCCN(C)C)cc3)oc2c1 [Compound 12, 2-(4-(3-Dimethylaminopropoxy)phenyl)-5,7-dimethoxy-chromen-4-one]",105 to 106,83.9,59,36,59,86,
"COc1cc(OC)c2c(=O)cc(-c3ccc(OCCF)cc3)oc2c1 [Compound 8, 2-(4-(2-Fluoroethoxy)phenyl)-5,7-dimethoxy-chromen-4-one]",187 to 188,127,,,,21,slightly increased antiproliferative effects in comparison with 6
"COc1cc(OC)c2c(=O)cc(-c3ccc(OCCN4CCOCC4)cc3)oc2c1 [Compound 11, 5,7-Dimethoxy-2-(4-(2-morpholin-4-yl-ethoxy)phenyl)-chromen-4-one]",149 to 150,117,,,,,
"COc1cc(OC)c2c(=O)cc(-c3ccc(OCCCN)cc3)oc2c1 [Compound 21, 2-(4-(3-Aminopropoxy)-phenyl)-5,7-dimethoxy-chromen-4-one]",170 to 171,116,,22,39,,
"CCN(CC)CCOc1ccc(-c2cc(=O)c3c(OC)cc(OC)cc3o2)cc1 [Compound 17, 2-(4-(2-Diethylaminoethoxy)-phenyl)-5,7-dimethoxy-chromen-4-one]",116 to 117,106,,33,60,72,
O=c1cc(-c2ccc(OCCN3CCCC3)cc2)oc2cc(O)cc(O)c12 [Compound 39],228 to 229,99.6,,2,71,90,
COc1cc(O)c2c(=O)cc(-c3ccc(OCCN4CCCC4)cc3)oc2c1 [Compound 38],127 to 129,109,,,39,99,
"COc1cc(OC)c2c(=O)cc(-c3ccc(OCCN4CCCC4=O)cc3)oc2c1 [Compound 13, 1-(2-(4-(5,7-Dimethoxy-4-oxo-4H-chromen-2-yl)phenoxy)ethyl)-pyrrolidin-2-one]",115 to 116,108,,7,14,33,
"COC(=O)[C@@H]1CCCN1CCOc1ccc(-c2cc(=O)c3c(OC)cc(OC)cc3o2)cc1 [Compound 18, 1-(2-(4-(5,7-Dimethoxy-4-oxo-4H-chromen-2-yl)phenoxy)ethyl)-pyrrolidine-2-carboxylic acid methyl ester]",121 to 122,116,,22,37,67,
"COc1cc(OC)c2c(=O)cc(-c3ccc(OC4CCN(C)CC4)cc3)oc2c1 [Compound 9, 5,7-Dimethoxy-2-(4-(1-methylpiperidin-4-yloxy)phenyl)-chromen-4-one]",143 to 144,122,49,28,49,,
"COc1cc(OC)c2c(=O)cc(-c3ccc(O)cc3)oc2c1 [Compound 6, 2-(4-Hydroxy-phenyl)-5,7-dimethoxy-chromen-4-one]",,130,,,,,
"COc1cc(OC)c2c(=O)cc(-c3ccc(OCC(O)CO)cc3)oc2c1 (stereo not drawn) [Compound 28, 2-(4-(2,3-Dihydroxypropoxy)phenyl)-5,7-dimethoxy-chromen-4-one]",203 to 204,104,,,11,16,dramatic loss of activities
"COc1cc(OC)c2c(=O)cc(-c3ccc(NCCN(C)C)cc3)oc2c1 [Compound 36, 2-(4-(2-Dimethylaminoethylamino)phenyl)-5,7-dimethoxy-chromen-4-one]",159 to 160,112,,30,60,84,
"COc1cc(OC)c2c(=O)cc(-c3ccc(OCCN(C)C)cc3)oc2c1 [Compound 10, 2-(4-(2-Dimethylaminoethoxy)phenyl)-5,7-dimethoxy-chromen-4-one]",153 to 154,125,51,19,51,65,
"COc1cc(OC)c2c(=O)cc(-c3ccc(Br)cc3)oc2c1 [Compound 31, 2-(4-Bromophenyl)-5,7-dimethoxy-chromen-4-one]",,69.4,,12,10,22,
"COc1cc(OC)c2c(=O)cc(-c3ccc(OCC(O)CN4CCCC4)cc3)oc2c1 (stereo not drawn) [Compound 25, 2-(4-(2-Hydroxy-3-pyrrolidin-1-yl-propoxy)phenyl)-5,7-dimethoxy-chromen-4-one]",137 to 138,85.9,,21,37,57,
COc1cc(OC)c2c(=O)cc(-c3ccc(NCCN4CCCC4)cc3)oc2c1 [Compound 37],148 to 149,109,,21,51,80,
"COc1cc(OC)c2c(=O)cc(-c3ccc(OCC(O)CN(C)C)cc3)oc2c1 (stereo not drawn) [Compound 26, 2-(4-(3-Dimethylamino-2-hydroxypropoxy)-phenyl)-5,7-dimethoxy-chromen-4-one]",92 to 93,117,,42,60,71,

# — patent US9868715B2 (THE BOARD OF REGENTS OF THE UNIVERSITY OF TEXAS SYSTEMS, priority 2014, dated 2018)
